# Laboratory results: patent publication US9157077B2, “Aminopyrimidine kinase inhibitors” (Jasco Pharmaceuticals, LLC, priority 2009, dated 2015)
# Tests used:
# Experiment in all cases: IC50 of Compound (nM) (ATP present at Km of enzyme), Table 30
# Format in all cases: biochemical
# [1] = target: Enzyme (kinases of Table 30) (Homo sapiens, UniProt P11309); conditions: Pim-1(h), ATP present at Km of enzyme; read-out: IC50 of Compound, Pim-1(h)
# [2] = target: Enzyme (kinases of Table 30) (Homo sapiens, UniProt Q9P1W9); conditions: Pim-2(h), ATP present at Km of enzyme; read-out: IC50 of Compound, Pim-2(h)
# [3] = target: Enzyme (kinases of Table 30) (Homo sapiens, UniProt Q86V86); conditions: Pim-3(h), ATP present at Km of enzyme; read-out: IC50 of Compound, Pim-3(h)
# [4] = target: T1, Enzyme (kinases of Table 30) (Homo sapiens, UniProt P68400); conditions: CK2(h), ATP present at Km of enzyme
# T1 construct: IC50 of Compound, CK2(h); other: CK2(h), ATP present at Km of enzyme
# T1 sequence (P68400 whole entry): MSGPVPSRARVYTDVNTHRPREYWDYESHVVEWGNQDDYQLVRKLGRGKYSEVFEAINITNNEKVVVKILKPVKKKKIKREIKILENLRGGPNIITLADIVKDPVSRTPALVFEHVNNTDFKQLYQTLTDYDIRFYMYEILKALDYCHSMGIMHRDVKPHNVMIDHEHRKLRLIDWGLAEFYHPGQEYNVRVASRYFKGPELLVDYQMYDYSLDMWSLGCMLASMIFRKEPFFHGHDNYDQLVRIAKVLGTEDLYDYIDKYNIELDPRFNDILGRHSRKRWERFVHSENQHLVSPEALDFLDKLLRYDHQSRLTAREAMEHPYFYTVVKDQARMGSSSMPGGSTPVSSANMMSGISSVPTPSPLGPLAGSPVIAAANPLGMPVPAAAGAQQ
# Enzyme (kinases of Table 30) (Homo sapiens, UniProt Q9P1W9), sequence (Q9P1W9 whole entry): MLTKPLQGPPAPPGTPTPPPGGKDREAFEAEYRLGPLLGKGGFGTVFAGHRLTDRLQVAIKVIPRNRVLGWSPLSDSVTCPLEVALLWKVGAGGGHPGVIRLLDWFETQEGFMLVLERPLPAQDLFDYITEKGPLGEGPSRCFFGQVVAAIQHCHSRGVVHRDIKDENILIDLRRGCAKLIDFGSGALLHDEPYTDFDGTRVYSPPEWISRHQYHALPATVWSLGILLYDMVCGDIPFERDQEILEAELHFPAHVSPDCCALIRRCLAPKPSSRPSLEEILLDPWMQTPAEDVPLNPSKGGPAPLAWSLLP
# Enzyme (kinases of Table 30) (Homo sapiens, UniProt P11309), sequence (P11309 whole entry): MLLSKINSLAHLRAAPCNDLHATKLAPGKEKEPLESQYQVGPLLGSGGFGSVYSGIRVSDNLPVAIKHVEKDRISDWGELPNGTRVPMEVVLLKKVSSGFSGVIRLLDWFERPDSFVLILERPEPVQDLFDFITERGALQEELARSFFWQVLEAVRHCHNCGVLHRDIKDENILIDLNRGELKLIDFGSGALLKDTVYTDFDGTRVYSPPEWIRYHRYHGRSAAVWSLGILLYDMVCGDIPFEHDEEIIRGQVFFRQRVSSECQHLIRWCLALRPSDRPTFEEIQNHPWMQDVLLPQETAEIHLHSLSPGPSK
Compound,IC50 [1],IC50 [2],IC50 [3],IC50 [4]
O=C1NC(=O)/C(=C/c2ccnc(N3CCc4[nH]c5ccccc5c4C3)n2)S1 [compound 91],255 nM,127 nM,1000 nM,222 nM
CN1CCC(CNc2nccc(/C=C3\SC(=O)NC3=O)n2)CC1 [compound 92],628 nM,228 nM,31 nM,186 nM
O=C1NC(=O)/C(=C/c2ccnc(N3CCC(CO)CC3)n2)S1 [compound 98],204 nM,136 nM,169 nM,422 nM
O=C1NC(=O)/C(=C/c2ccnc(N3CCC(CCO)CC3)n2)S1 [compound 106],166 nM,127 nM,298 nM,361 nM
CN(c1nccc(/C=C2\SC(=O)NC2=O)n1)C1CCCCC1 [compound 119],186 nM,16 nM,267 nM,176 nM
CN(c1nccc(/C=C2\SC(=O)NC2=O)n1)[C@H]1CCCNC1 [compound 143],20 nM,5 nM,3 nM,66 nM
O=C1NC(=O)/C(=C/c2ccnc(N[C@H]3CCCNC3)n2)S1 [compound 144],78 nM,18 nM,9 nM,23 nM
O=C1NC(=O)/C(=C/c2ccnc(NCC3CCNCC3)n2)S1 [compound 147],258 nM,90 nM,31 nM,134 nM
CN(CC1CCNCC1)c1nccc(/C=C2\SC(=O)NC2=O)n1 [compound 151],246 nM,98 nM,171 nM,415 nM

# Now from value to compound:
IC50 [1],IC50 [2],IC50 [3],IC50 [4],Compound
487 nM,108 nM,18 nM,669 nM,O=C1NC(=O)/C(=C/c2ccnc(N3CCC(CNCc4cccnc4)CC3)n2)S1 [compound 176]
96 nM,87 nM,22 nM,705 nM,O=C1NC(=O)/C(=C/c2ccnc(N3CCC(CNCc4ccncc4)CC3)n2)S1 [compound 177]
288 nM,43 nM,65 nM,129 nM,O=C1NC(=O)/C(=C/c2ccnc(N3CCC(CNCC4CCN4)CC3)n2)S1 (stereo not shown) [compound 208]
475 nM,146 nM,249 nM,476 nM,O=C1NC(=O)/C(=C/c2ccnc(N3CCC(CNc4ccc5ccccc5n4)CC3)n2)S1 [compound 219]
